Assay results: patent US20240150368A1, “ULK INHIBITORS AND METHODS OF USE THEREOF” (Deciphera Pharmaceuticals, LLC, priority 2022, published 2024)

Experiments:
[1] = tested on: ULK kinase substrate ATG13 (pS318-ATG13) in A549 (KRAS mutant) cells; assay: pATG13 levels of mutant KRas A549 cells after treatment with ULK inhibitors in combination with trametinib (ELISA); type: cell-based, human
Experimental: Cellular Inhibition of ULK Kinase Substrate ATG13 Protein pATG13 Levels of Mutant KRas A549 Cells after Treatment with ULK Inhibitors in Combination with Trametinib
A549 (KRAS mutant) human lung cancer cells (6,000 cells/well) were added to a 384-well tissue-culture treated plate in 50 μL of pre-warmed DMEM medium supplemented with 10% characterized fetal bovine serum (Invitrogen, Carlsbad, CA), 100 units/mL penicillin G, and 100 μg/mL streptomycin and allowed to grow overnight at 37° C., 5% CO2, and 95% humidity. The following day, 10 μL of media containing trametinib or DMSO as a control was added to wells. The final concentration of trametinib in wells was 250 nM. A dose response of a test compound (0.6 μL per well) was added. DMSO (0.6 μL) was added to control wells. The plate was briefly shaken to mix wells and then incubated at 37° C. overnight. The next day, the media was aspirated and cells were washed with Dulbecco's Phosphate Buffered Saline (Gibco). Cells were lysed using MPER lysis buffer (Pierce, Rockford, IL) containing Halt Phosphatase and Protease Inhibitors (Pierce, Rockford, IL) and Phosphatase inhibitor cocktail 2 (Sigma, St. Louis, MO) at 4° C. for 10 min with shaking.
Cellular levels of phospho-Serine 318 ATG13 (pATG13) were measured via an ELISA method. Total ATG13 Antibody (Cell Signaling Cat #13273) was used to coat the wells. The plate was incubated at 4° C. overnight and washed with ELISA wash buffer (Biolegend Cat #421601). The wells were then blocked with assay diluent (Biolegend Cat #421203) for 1 h at rt. Plate wells were washed with ELISA wash buffer. Cell lysate was added to wells and incubated at rt for 2 h. Plate wells were washed with ELISA wash buffer. Biotinylated pS318-ATG13 antibody (Rockland Immunochemicals Cat #600-401-C49) was diluted in assay diluent and added to each well and incubated at rt for 1 h. Plate wells were washed with ELISA wash buffer. Streptavidin linked to horseradish peroxidase (Thermo Fisher Cat #21140) was diluted in assay diluent and added to each well and incubated at rt for 1 h. Plate wells were washed with ELISA wash buffer. High sensitivity TMB substrate (Biolegend Cat #421101) was added to each well and incubated at rt for 20 min. The reaction was stopped with 2N Sulfuric Acid. The plate was analyzed at on a plate reader measuring absorbance at 450 nm and 540 nm (background). Signal was calculated by first subtracting the background absorbance at 540 nm from the absorbance at 450 nm for each well. Next, the background corrected absorbance at 450 nm from blank wells was subtracted from test wells. Data was compared to control wells to determine % ATG13 phosphorylation. GraphPad Prism was used to calculate IC50 values.

ULK2 kinase = biological target: T1, ULK2 kinase (Homo sapiens, UniProt Q8IYT8); assay: Biochemical assay for ULK2 (coupled pyruvate kinase/lactate dehydrogenase assay); details: 1 mM ATP, 1 nM ULK2; read-out: ULK2 (inhibition of biochemical activity), IC50
T1 construct: (residues 1-306 with N-terminal GST and His tag; ID NO: 2); purchased Signal Chem U02-11G
Outline: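 Continuous PK/LDH-coupled NADH oxidation assay (A340) with 1 nM ULK2, 200 μM ULKtide and 1 mM ATP in Tris pH 7.5, 15 mM MgCl2, 1% DMSO, read 6 h at 30° C. Rates from the 2-3 h window converted to percent inhibition against no-compound and known-inhibitor controls; IC50 by four-parameter sigmoidal fit.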

ULK1 kinase = biological target: T2, ULK1 kinase (Homo sapiens, UniProt O75385, E37A/K38A); assay: Biochemical assay for ULK1 (coupled pyruvate kinase/lactate dehydrogenase assay); details: 1 mM ATP, 0.1 nM ULK1; read-out: ULK1 (inhibition of biochemical activity), IC50
T2 construct: (residues 1-283; ID NO: 1); purchased Beryllium
T2 sequence (O75385 1-283 E37A/K38A): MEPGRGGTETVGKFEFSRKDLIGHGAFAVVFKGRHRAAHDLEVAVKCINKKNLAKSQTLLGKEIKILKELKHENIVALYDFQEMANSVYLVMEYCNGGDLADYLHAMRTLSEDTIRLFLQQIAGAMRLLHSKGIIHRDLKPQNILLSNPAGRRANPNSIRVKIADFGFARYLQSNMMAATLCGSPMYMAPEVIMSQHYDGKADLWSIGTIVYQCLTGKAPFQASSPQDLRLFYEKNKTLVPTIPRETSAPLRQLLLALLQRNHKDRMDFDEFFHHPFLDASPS
Outline: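 IC50 values were fitted to percent inhibition, normalised with no-compound and known-inhibitor controls, using rates from 2–3 h of a 6 h read at 30 °C. ADP was coupled through pyruvate kinase/lactate dehydrogenase to NADH loss at 340 nm.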

T1 sequence (Q8IYT8 with tags, fused parts or gaps): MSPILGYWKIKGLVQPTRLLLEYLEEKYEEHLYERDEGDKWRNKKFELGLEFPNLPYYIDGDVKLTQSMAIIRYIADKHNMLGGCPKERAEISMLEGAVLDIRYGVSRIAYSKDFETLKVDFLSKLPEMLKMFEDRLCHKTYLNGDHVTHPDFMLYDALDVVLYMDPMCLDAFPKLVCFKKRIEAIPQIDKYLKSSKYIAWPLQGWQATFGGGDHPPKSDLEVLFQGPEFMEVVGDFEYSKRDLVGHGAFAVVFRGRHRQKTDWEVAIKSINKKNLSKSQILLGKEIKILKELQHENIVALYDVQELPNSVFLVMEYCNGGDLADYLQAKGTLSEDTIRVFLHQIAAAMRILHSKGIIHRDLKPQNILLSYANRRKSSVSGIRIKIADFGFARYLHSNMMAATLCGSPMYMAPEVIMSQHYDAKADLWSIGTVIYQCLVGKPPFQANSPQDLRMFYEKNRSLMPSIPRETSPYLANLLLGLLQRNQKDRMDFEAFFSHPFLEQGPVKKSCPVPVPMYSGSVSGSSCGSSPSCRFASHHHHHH

Row | SMILES | IC50 [1] | IC50 (ULK2 kinase) | IC50 (ULK1 kinase)
1 | CC/C(Nc1cnn(C2CCN(C(C)C)CC2)c1)=C1/C(=O)Nc2ccc(C(=O)NCC3CCC(C4CC4)O3)cc21 (centres unmarked) [Example 3, (Z)—N-((5-cyclopropyltetrahydrofuran-2-yl)methyl)-3-(1-((1-(1-isopropylpiperidin-4-yl)-1H-pyrazol-4-yl)amino)propylidene)-2-oxoindoline-5-carboxamide] | 100 to 300 nM | 100 to 500 nM | 10 to 100 nM
2 | CC/C(Nc1cnn(C(C)C)c1)=C1/C(=O)Nc2ccc(C(=O)NCC(F)(F)F)cc21 [Example 4, (Z)-3-(1-((1-isopropyl-1H-pyrazol-4-yl)amino)propylidene)-2-oxo-N-(2,2,2-trifluoroethyl)indoline-5-carboxamide] | 100 to 300 nM | 10 to 100 nM | ≤ 10 nM
3 | CC/C(Nc1cnn(C(C)C)c1)=C1/C(=O)Nc2ccc(C(=O)NCC3(C)COC3)cc21 [Example 5, (Z)-3-(1-((1-isopropyl-1H-pyrazol-4-yl)amino)propylidene)-N-((3-methyloxetan-3-yl)methyl)-2-oxoindoline-5-carboxamide] | > 600 nM | 100 to 500 nM | 10 to 100 nM
4 | CC/C(Nc1cnn(C2CCN(C(C)C)CC2)c1)=C1/C(=O)Nc2ccc(C(=O)N(C)CC(F)(F)F)cc21 [Example 7] | ≤ 100 nM | 10 to 100 nM | ≤ 10 nM
5 | CC/C(Nc1cnn(C2CCN(C(C)C)CC2)c1)=C1/C(=O)Nc2ccc(C(=O)NCC(F)(F)F)cc21 [Example 8] | ≤ 100 nM | 10 to 100 nM | ≤ 10 nM
6 | CC/C(Nc1cnn(C2CCN(C(C)C)CC2)c1)=C1/C(=O)Nc2ccc(C(=O)N(C)CCOC)cc21 [Example 9] | 300 to 600 nM |  | 10 to 100 nM
7 | CC/C(Nc1cnn(C2CCN(C(C)C)CC2)c1)=C1/C(=O)Nc2ccc(C(=O)NCC(C)C)cc21 [Example 16] | ≤ 100 nM | 10 to 100 nM | ≤ 10 nM
8 | CC/C(Nc1cnn(C2CCN(C(C)C)CC2)c1)=C1/C(=O)Nc2ccc(C(=O)NCC3CCO3)cc21 (centres unmarked) [Example 21] | > 600 nM | 10 to 100 nM | 10 to 100 nM
9 | CC/C(Nc1cnn(C2CCN(C(C)C)CC2)c1)=C1/C(=O)Nc2ccc(C(=O)NCCC#N)cc21 [Example 26] | > 600 nM | 10 to 100 nM | ≤ 10 nM
10 | CC/C(Nc1cnn(C2CCN(C(C)C)CC2)c1)=C1/C(=O)Nc2ccc(C(=O)NCC(C)(C)OC)cc21 [Example 27] | 100 to 300 nM | 100 to 500 nM | 10 to 100 nM
11 | CC/C(Nc1cnn(C2CCN(C(C)C)CC2)c1)=C1/C(=O)Nc2ccc(C(=O)NCC(C)(C)O)cc21 [Example 28] | > 600 nM | 10 to 100 nM | 10 to 100 nM
12 | CC/C(Nc1cnn(C2CCN(C(C)C)CC2)c1)=C1/C(=O)Nc2ccc(C(=O)NC3CC(F)(F)C3)cc21 [Example 29] | 300 to 600 nM | 10 to 100 nM | ≤ 10 nM
13 | CC/C(Nc1cnn(C2CCN(C(C)C)CC2)c1)=C1/C(=O)Nc2ccc(C(=O)NCC3CC(F)(F)C3)cc21 [Example 30] | 100 to 300 nM | ≤ 10 nM | ≤ 10 nM
14 | CC/C(Nc1cnn(C2CCN(C(C)C)CC2)c1)=C1/C(=O)Nc2ccc(C(=O)NCCC(F)(F)F)cc21 [Example 31] | ≤ 100 nM | ≤ 10 nM | ≤ 10 nM
15 | CC/C(Nc1cnn(C2CCN(C3CCOCC3)CC2)c1)=C1/C(=O)Nc2ccc(C(=O)NCC(C)C)cc21 [Example 37] | ≤ 100 nM | 10 to 100 nM | ≤ 10 nM
16 | CC/C(Nc1cnn(C2CCN(C(C)C)CC2)c1)=C1/C(=O)Nc2ccc(C(=O)NCC3CC3)cc21 [Example 42] | ≤ 100 nM | 10 to 100 nM | ≤ 10 nM
17 | CC/C(Nc1cnn(C2CCN(C(C)C)CC2)c1)=C1/C(=O)Nc2ccc(C(=O)NCC3CCCC3)cc21 [Example 44] | ≤ 100 nM | ≤ 10 nM | ≤ 10 nM

Row | SMILES | IC50 [1] | IC50 (ULK2 kinase) | IC50 (ULK1 kinase)
18 | CC/C(Nc1ccc(N2CCN(C(C)C)CC2)cc1)=C1/C(=O)Nc2ccc(C(=O)NC[C@H]3CCCO3)cc21 [Example 47] | ≤ 100 nM | 10 to 100 nM | ≤ 10 nM
19 | CC/C(Nc1cnn(C2CCN(C)CC2)c1)=C1/C(=O)Nc2ccc(C(=O)NC[C@H]3CCCO3)cc21 [Example 51] | > 600 nM | 10 to 100 nM | ≤ 10 nM
20 | CC/C(Nc1cnn(C2CCNCC2)c1)=C1/C(=O)Nc2ccc(C(=O)NC[C@H]3CCCO3)cc21 [Example 52] | > 600 nM | 10 to 100 nM | ≤ 10 nM
21 | CC/C(Nc1cnn(C2CC3CCC(C2)N3C)c1)=C1/C(=O)Nc2ccc(C(=O)NC[C@H]3CCCO3)cc21 (some centres unmarked) [Example 53] | > 600 nM | 10 to 100 nM | ≤ 10 nM
22 | CC/C(Nc1cnn(C2CN(C)C2)c1)=C1/C(=O)Nc2ccc(C(=O)NC[C@H]3CCCO3)cc21 [Example 54] | 300 to 600 nM | 10 to 100 nM | ≤ 10 nM
23 | CC/C(Nc1cnn(C)c1)=C1/C(=O)Nc2ccc(C(=O)NC[C@H]3CCCO3)cc21 [Example 55] | 100 to 300 nM | 100 to 500 nM | 10 to 100 nM
24 | CC/C(Nc1cnn(C2CCN(C(C)C)CC2)c1)=C1/C(=O)Nc2ccc(C(=O)NC[C@@H](C)OC)cc21 [Example 58] | 100 to 300 nM | 100 to 500 nM | 10 to 100 nM
25 | CC/C(Nc1ccc(N2CC3CC(C2)N3C)cc1)=C1/C(=O)Nc2ccc(C(=O)NCC(F)(F)F)cc21 [Example 60] | ≤ 100 nM | 10 to 100 nM | ≤ 10 nM
26 | CC/C(Nc1ccc(N2C[C@H]3CN(C)C[C@H]3C2)cc1)=C1/C(=O)Nc2ccc(C(=O)NCC(F)(F)F)cc21 [Example 61] | ≤ 100 nM | 10 to 100 nM | ≤ 10 nM
27 | CC/C(Nc1ccc(N2CC3(CN(C)C3)C2)cc1)=C1/C(=O)Nc2ccc(C(=O)NCC(F)(F)F)cc21 [Example 62] | 100 to 300 nM | 10 to 100 nM | ≤ 10 nM
28 | CC/C(Nc1ccc(N2CCN(C(C)C)CC2)cn1)=C1/C(=O)Nc2ccc(C(=O)NC[C@H]3CCCO3)cc21 [Example 93] | ≤ 100 nM | 10 to 100 nM | ≤ 10 nM
29 | CC/C(Nc1cnc(N2CCN(C(C)C)CC2)cn1)=C1/C(=O)Nc2ccc(C(=O)NCC(F)(F)F)cc21 [Example 94] | 100 to 300 nM | 10 to 100 nM | 10 to 100 nM
30 | CC/C(Nc1cnn(C(C)C)c1)=C1/C(=O)Nc2ccc(C(=O)NC[C@H]3CCCO3)cc21 [Example 95] | ≤ 100 nM | 10 to 100 nM | ≤ 10 nM
31 | CC/C(Nc1cnn(C2CCN(C(C)C)CC2)c1)=C1/C(=O)Nc2ccc(C(=O)NCCOC)cc21 [Example 98] | 300 to 600 nM | 100 to 500 nM | ≤ 10 nM
32 | CC/C(Nc1ccc(N2CCN(C(C)C)CC2)cc1)=C1/C(=O)Nc2cc(F)c(C(=O)NCC(F)(F)F)cc21 [Example 100] | 300 to 600 nM | 100 to 500 nM | 100 to 500 nM
33 | C/C(Nc1cnn(C(C)C)c1)=C1/C(=O)Nc2ccc(C(=O)NCC(F)(F)F)cc21 [Example 101] | ≤ 100 nM | 10 to 100 nM | ≤ 10 nM
34 | CC/C(Nc1cnn(CCOC)c1)=C1/C(=O)Nc2ccc(C(=O)NCC(F)(F)F)cc21 [Example 102] | 100 to 300 nM | 10 to 100 nM | 10 to 100 nM
